Source: patent US5624923A, “Tricyclic diazepine vasopressin antagonists and oxytocin antagonists” (priority 1995, dated 1997)

Columns and labels:
[1] = target: T1, Rat Kidney Medullary V2 Receptors (Rattus norvegicus, UniProt Q00788); experiment: Binding Assay to Rat Kidney Medullary V2 Receptors; conditions: for IC50: rat kidney medulla membranes, read-out: V2 IC50; for inhibition at 10 µM: rat
T1 construct: Medullary tissues from rat kidneys are dissected out; from tissue; host or cells: rat kidney medulla membranes
Method in brief: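 Membranes were prepared from rat kidney medulla and stored in 50.0 mM Tris-HCl pH 7.4 with 0.2% BSA and 0.1 mM PMSF. Radioligand competition ran 120 min at bench temperature, with 1.0 μM unlabeled ligand defining nonspecific binding. Compounds were added in 50% DMSO; filtration, tritium scintillation counting, IC50 from competition analysis.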

Vasopressin V1 = Vasopressin V1 Antagonist Activity in Conscious Rats (vasopressin vasopressor response); type: in vivo, rat
Method in brief: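 Conscious rats are restrained supine, and under local 2% procaine a PE 10/20 cannula is passed through the ventral caudal tail artery into the lower abdominal aorta. The caudal vein is cannulated for intravenous dosing. Blood pressure is recorded with a Statham P23Db transducer, and vasopressin injections are repeated after compound dosing. Percent antagonism is calculated against the pre-drug vasopressor response taken as 100%.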

oxytocin receptors = target: T2, oxytocin receptors (Rattus norvegicus, UniProt P70536); experiment: Oxytocin Receptor Binding; conditions: for IC50: 1.0 nM [3H]oxytocin
T2 construct: The uteri are dissected out, cleaned of fat and connective tissues; from tissue; host or cells: uterus of DES-treated female Sprague-Dawley rats
T2 sequence (P70536 1-388): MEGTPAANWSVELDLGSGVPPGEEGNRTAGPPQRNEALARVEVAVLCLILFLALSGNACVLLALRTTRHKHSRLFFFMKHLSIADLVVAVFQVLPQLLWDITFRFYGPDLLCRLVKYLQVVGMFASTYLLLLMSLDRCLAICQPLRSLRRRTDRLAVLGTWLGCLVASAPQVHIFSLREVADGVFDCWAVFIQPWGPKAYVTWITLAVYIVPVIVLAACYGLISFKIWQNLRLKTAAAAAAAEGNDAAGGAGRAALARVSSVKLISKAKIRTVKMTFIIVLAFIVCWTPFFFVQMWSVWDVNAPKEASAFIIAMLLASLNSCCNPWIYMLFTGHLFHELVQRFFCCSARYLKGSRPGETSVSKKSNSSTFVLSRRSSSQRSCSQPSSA
Method in brief: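 Membranes from uteri of DES-primed (0.3 mg/kg i.m., 18 h) female Sprague-Dawley rats. Competition with 1.0 nM [3H]oxytocin in 50 mM Tris.HCl pH 7.4, 5 mM MgCl2 with protease inhibitors, 60 min at 22 °C, filtration read-out. Non-specific binding with 1.0 uM unlabeled OT; IC50 calculated.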

T1 sequence (Q00788 whole entry): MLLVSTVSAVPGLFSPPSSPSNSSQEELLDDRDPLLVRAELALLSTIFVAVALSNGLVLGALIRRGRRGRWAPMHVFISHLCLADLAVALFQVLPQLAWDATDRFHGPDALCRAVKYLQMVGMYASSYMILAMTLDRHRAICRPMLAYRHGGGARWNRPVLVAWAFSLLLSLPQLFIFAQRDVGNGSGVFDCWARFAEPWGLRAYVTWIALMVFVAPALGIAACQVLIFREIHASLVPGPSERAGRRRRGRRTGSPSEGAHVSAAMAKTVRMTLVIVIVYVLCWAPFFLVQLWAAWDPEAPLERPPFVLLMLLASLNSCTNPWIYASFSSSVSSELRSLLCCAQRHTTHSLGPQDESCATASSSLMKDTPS

| SMILES | IC50 [1] [nM] | Max. % Inhibition (Vasopressin V1; 10 mg/kg i.v.) [%] | Time (of max. % inhibition) (Vasopressin V1; 10 mg/kg i.v.) [min] | IC50 (oxytocin receptors) [nM] | inhibition at 10 µM (oxytocin receptors; [3H]oxytocin) [%] | Max. % Inhibition (Vasopressin V1; 30 mg/kg p.o.) [%] | Time (of max. % inhibition) (Vasopressin V1; 30 mg/kg p.o.) [min] | inhibition at 2.5 µM (oxytocin receptors; dose 2.5 μM, [3H]oxytocin) [%] | Max. % Inhibition (Vasopressin V1; 30 mg/kg i.v.) [%] | Time (of max. % inhibition) (Vasopressin V1; 30 mg/kg i.v.) [min] | inhibition at 10 µM [1] [%] | Max. % Inhibition (Vasopressin V1; 10 mg/kg p.o.) [%] | Time (of max. % inhibition) (Vasopressin V1; 10 mg/kg p.o.) [min] |
| --- | --- | --- | --- | --- | --- | --- | --- | --- | --- | --- | --- | --- | --- |
| O=C(Nc1ccc(C(=O)N2Cc3cccn3Cc3ccccc32)cc1)c1c(Cl)cccc1Cl [Example 469, N-[4-(5H-pyrrolo[2,1-c][1,4]benzodiazepin-10(11H)-ylcarbonyl)phenyl]-2,6-dichlorobenzamide] | 15 | 69 | 30 | 265 | 96 |  |  |  |  |  |  |  |  |
| Cc1ccccc1C(=O)Nc1ccc(C(=O)N2Cc3cccn3Cc3ccccc32)c(Cl)c1 [Example 470] | 4.5 | 87 | 180 | 220 |  | 69 | 180 | 92 |  |  |  |  |  |
| O=C(Nc1ccc(C(=O)N2Cc3cccn3Cc3ccccc32)c(Cl)c1)c1ccc(Cl)cc1Cl [Example 471] | 8.3 |  |  | 350 | 99 |  |  |  | 85 | 90 |  |  |  |
| Cc1ccccc1C(=O)Nc1c(C)cc(C(=O)N2Cc3cccn3Cc3ccccc32)cc1C [Example 472] |  |  |  |  | 0 |  |  |  | 36 | 90 | 22 |  |  |
| O=C(Nc1ccc(C(=O)N2Cc3cccn3Cc3ccccc32)cc1)c1cccc(C(F)(F)F)c1 [Example 474, N-[4-(5H-pyrrolo[2,1-c][1,4]benzodiazepin-10(11H)-ylcarbonyl)phenyl]-3-(trifluoromethyl)benzamide] | 38 |  |  |  | 18 |  |  |  | 80 | 60 |  |  |  |
| O=C(Nc1ccc(C(=O)N2Cc3cccn3Cc3ccccc32)cc1)c1sccc1Cl [Example 476, N-[4-(5H-pyrrolo[2,1-c][1,4]benzodiazepin-10(11H)-ylcarbonyl)phenyl]-3-chlorothiophene-2-carboxamide] | 69 | 78 | 30 | 820 | 94 | 19 | 180 |  |  |  |  |  |  |
| COc1cc(C(=O)N2Cc3cccn3Cc3ccccc32)ccc1NC(=O)c1cccc(F)c1C [Example 479, N-[4-(5H-pyrrolo[2,1-c][1,4]benzodiazepin-10(11H)-ylcarbonyl)-2-methoxy-phenyl]-3-fluoro-2-methylbenzamide] | 8 | 83 | 60 | 150 | 76 | 69 | 90 |  |  |  |  |  |  |
| Cc1c(F)cccc1C(=O)Nc1ccc(C(=O)N2Cc3cccn3Cc3ccccc32)c(Cl)c1 [Example 481, N-[4-(5H-pyrrolo[2,1-c][1,4]benzodiazepin-10(11H)-ylcarbonyl)-3-chlorophenyl]-3-fluoro-2-methylbenzamide] | 3.4 |  |  | 240 | 88 | 58 | 80 |  |  |  |  |  |  |
| Cc1ccc(F)cc1C(=O)Nc1ccc(C(=O)N2Cc3cccn3Cc3ccccc32)c(Cl)c1 [Example 482, N-[4-(5H-pyrrolo[2,1-c][1,4]benzodiazepin-10(11H)-ylcarbony)-3-chlorophenyl]-5-fluoro-2-methylbenzamide] | 2.3 | 40 | 60 | 126 | 97 |  |  |  |  |  |  |  |  |
| Cc1cccc(NC(=O)c2ccc(C(=O)N3Cc4cccn4Cc4ccccc43)cc2)c1C [Example 485, N-(2,3-Dimethylphenyl)-4-(5H-pyrrolo[2,1-c][1,4]benzodiazepin-10(11H)-ylcarbonyl)benzamide] | 13 |  |  | 2200 | 86 |  |  |  | 64 | 60 |  |  |  |
| COC(=O)c1ccc(C(=O)Nc2ccc(C(=O)N3Cc4cccn4Cc4ccccc43)cc2)cc1 [Example 489] |  |  |  |  | 44 |  |  |  | 39 | 120 | 82 |  |  |
| CN(C)CN(C(=O)c1ccc(Cl)cc1Cl)c1ccc(C(=O)N2Cc3cccn3Cc3ccccc32)cc1 [Example 490, N-[(Dimethylamino)methyl]-N-[4-(5H-pyrrolo[2,1-c][1,4]benzodiazepin-10(11H)-ylcarbonyl)phenyl]-2,4-dichlorobenzamide] | 5 | 74 | 90 | 300 | 99 |  |  |  |  |  |  | 65 | 120 |
| Cc1c(F)cccc1C(=O)Nc1ccc(C(=O)N2Cc3ccnn3Cc3ccccc32)cc1 [Example 517, N-[4-(4H-Pyrazolo[5,1-c][1,4]benzodiazepin-5(10H)-ylcarbonyl)phenyl]-3-fluoro-2-methylbenzamide] | 15 | 81 | 90 | 320 | 91 |  |  |  |  |  |  |  |  |
| Cc1ccccc1C(=O)Nc1ccc(C(=O)N2Cc3cccn3Cc3ccccc32)cc1Cl [Example 530, N-[4-(5H-Pyrrolo[2,1-c][1,4]benzodiazepin-10(11H)-ylcarbonyl)-2-chlorophenyl]-2-methylbenzamide] | 3.7 |  |  | 310 | 99 |  |  |  | 89 | 120 |  |  |  |
| O=C(Nc1ccc(C(=O)N2Cc3ccc(CO)n3Cc3ccccc32)cc1)c1ccc(Cl)cc1Cl [Example 581, 2,4-Dichloro-N-[4-[[3-(hydroxymethyl)-5H-pyrrolo[2,1-c][1,4]benzodiazepin-10(11H)-yl]carbonyl]phenyl]benzamide] | 5.3 | 94 | 30 | 200 | 99 | 79 | 30 |  |  |  |  |  |  |
| O=C(Nc1ccc(C(=O)N2Cc3ccc(Cn4ccnc4)n3Cc3ccccc32)cc1)c1ccc(Cl)cc1Cl [Example 582, 2,4-Dichloro-N-[4-[[3-(1H-imidazol-1-ylmethyl)-5H-pyrrolo[2,1-c][1,4]benzodiazepin-10(11H)-yl]carbonyl]phenyl]benzamide] | 14 | 75 | 170 | 675 | 96 |  |  |  |  |  |  |  |  |
| NC(=O)CNC(C(=O)Nc1ccc(C(=O)N2Cc3cccn3Cc3ccccc32)cc1)c1ccccc1 (centres unmarked) [Example 585] | 83 | 56 | 30 | 4700 | 70 |  |  |  |  |  |  |  |  |
| CC(=O)OC(C(=O)Nc1ccc(C(=O)N2Cc3cccn3Cc3ccccc32)cc1)c1ccccc1 (stereo not drawn) [Example 587, α-(Acetyloxy)-N-[4-(5H-pyrrolo[2,1-c][1,4]benzodiazepin-10(11H)-ylcarbonyl)phenyl]benzeneacetamide] | 22 | 75 | 60 | 8000 | 56 |  |  |  |  |  |  |  |  |
| O=C(CN1CCOCC1)Nc1ccc(C(=O)N2Cc3cccn3Cc3ccccc32)cc1 [Example 590, N-[4-(5H-pyrrolo[2,1-c][1,4]benzodiazepin-10(11H)-ylcarbonyl)phenyl]-4-morpholineacetamide] |  |  |  |  | 12 |  |  |  | 89 | 120 | 81 |  |  |
